These results are taken from ChEMBL document CHEMBL1127868, “Synthesis and In Vitro evaluation of fused ring heterocyle-containing angiotensin II antagonists” (Bioorg Med Chem Lett, 1994).

In experiment [1] the target is T1, Type-1 angiotensin II receptor (Oryctolagus cuniculus, UniProt P34976).
T1 sequence (P34976 whole entry): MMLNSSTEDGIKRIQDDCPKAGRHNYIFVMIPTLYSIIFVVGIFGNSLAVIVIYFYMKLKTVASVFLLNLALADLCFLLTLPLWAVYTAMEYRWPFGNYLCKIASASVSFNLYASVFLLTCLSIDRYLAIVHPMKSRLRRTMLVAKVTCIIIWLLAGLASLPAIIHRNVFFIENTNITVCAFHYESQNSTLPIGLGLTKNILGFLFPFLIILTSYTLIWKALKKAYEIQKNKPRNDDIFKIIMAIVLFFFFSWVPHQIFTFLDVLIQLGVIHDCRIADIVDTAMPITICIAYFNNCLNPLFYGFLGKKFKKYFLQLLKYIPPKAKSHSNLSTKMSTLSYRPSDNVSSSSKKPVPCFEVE
Nature of the experiment: pA2 value determined in vitro against angiotensin II receptor, type 1 using rabbit aortic rings. The settings on record: read-out: pA2 (converted).

The test system of experiment [2] is Rattus norvegicus. In words: Dose (po) required to normalize blood pressure in renal artery-ligated rats. It counts as functional.

`CCCN(Cc1ccc(-c2ccccc2-c2nnn[nH]2)cc1)c1ncnc2[nH]cnc12`: the Kb in experiment [1] is 12 nM.

For `CCCN(Cc1ccc(-c2ccccc2-c2nnn[nH]2)cc1)c1ncnc2cccc(C(=O)O)c12`, in experiment [1], the Kb is > 100 nM.

As to `CCCCN(Cc1ccc(-c2ccccc2-c2nn[nH]n2)cc1)c1ncnc2c1nc([S+](C)[O-])n2C` (stereo not given), the Kb in experiment [1] is 41.7 nM.

Turning to `CCCCN(Cc1ccc(-c2ccccc2-c2nn[nH]n2)cc1)c1ncnc2ccc(C(=O)O)nc12`, in experiment [1], the Kb was 6.46 nM.

`CCCN(Cc1ccc(-c2ccccc2-c2nn[nH]n2)cc1)c1ncnc2ncn(C)c12`: in experiment [1], the Kb is 933 nM.

In the case of `CCCCN(Cc1ccc(-c2ccccc2-c2nnn[nH]2)cc1)c1ncnc2cccnc12`, the Kb in experiment [1] was 776 nM.

For `CCCCN(Cc1ccc(-c2ccccc2-c2nn[nH]n2)cc1)c1ncnc2c1nc(O)n2C`, the Kb in experiment [1] was 29.5 nM.

Regarding `CCCCN(Cc1ccc(-c2ccccc2-c2nnn[nH]2)cc1)c1ncnc2ccc(C(=O)O)cc12`, the Kb in experiment [1] was 9.55 nM.

As to `CCCN(Cc1ccc(-c2ccccc2-c2nnn[nH]2)cc1)c1ncnc2cccc(C(=O)OC)c12`, in experiment [1], the Kb was > 100 nM.

Regarding `CCCCN(Cc1ccc(-c2ccccc2-c2nn[nH]n2)cc1)c1ncnc2ccc(C(=O)OC)cc12`, the Kb in experiment [1] was 107 nM.

`CCCN(Cc1ccc(-c2ccccc2-c2nn[nH]n2)cc1)c1ncccc1C(=O)O` registered a Dose in experiment [2] of 0.3 mg/kg. Also, the Kb in experiment [1] was 0.0501 nM.

For the molecule `CCCCN(Cc1ccc(-c2ccccc2-c2nnn[nH]2)cc1)c1ncnc2nc[nH]c12`, the Kb in experiment [1] was 6.76 nM.

With `CCCN(Cc1ccc(-c2ccccc2-c2nnn[nH]2)cc1)c1ncnc2c1ncn2CC(=O)O`, the Kb in experiment [1] is 7.24 nM.

In the case of `CCCN(Cc1ccc(-c2ccccc2-c2nn[nH]n2)cc1)c1ncnc2cccc(OC)c12`, the Kb in experiment [1] was > 100 nM.

As for `CCCCN(Cc1ccc(-c2ccccc2-c2nn[nH]n2)cc1)c1ncnc2c1nnn2C`, the Kb in experiment [1] is 10.7 nM.

As to `CCCCN(Cc1ccc(-c2ccccc2-c2nnn[nH]2)cc1)c1ncnc2cc(C(=O)O)ccc12`, the Kb in experiment [1] is 35.5 nM.

For `CCc1nc(N(C)Cc2ccc(-c3ccccc3-c3nn[nH]n3)cc2)c2cc(OC)ccc2n1`, the Kb in experiment [1] was 47.9 nM.

Turning to `CCCCN(Cc1ccc(-c2ccccc2-c2nn[nH]n2)cc1)c1ncnc2c1ncn2C`, the Kb in experiment [1] was 8.32 nM.

Regarding `CCCCN(Cc1ccc(-c2ccccc2-c2nn[nH]n2)cc1)c1ncnc2ccc(O)cc12`, in experiment [1], the Kb is 87.1 nM.

For the molecule `CCc1nc(NCc2ccc(-c3ccccc3-c3nn[nH]n3)cc2)c2cc(C(=O)O)ccc2n1`, the Kb in experiment [1] is 2.57 nM.

On to `CCCN(Cc1ccc(-c2ccccc2-c2nn[nH]n2)cc1)c1ncnc2oc(C)nc12`, for which the Kb in experiment [1] was 97.7 nM.

For the molecule `CCCCN(Cc1ccc(-c2ccccc2-c2nn[nH]n2)cc1)c1ncnc2c1nc(C)n2C`, the Kb in experiment [1] was 9.33 nM.

Regarding `CCc1nc(NCc2ccc(-c3ccccc3-c3nn[nH]n3)cc2)c2c[nH]nc2n1`, in experiment [1], the Kb is 138 nM.

As for `CCCCN(Cc1ccc(-c2ccccc2-c2nnn[nH]2)cc1)c1ncnc2nccnc12`, the Kb in experiment [1] was 115 nM.

As to `CCCCN(Cc1ccc(-c2ccccc2-c2nn[nH]n2)cc1)c1ncnc2c1nc(C#N)n2C`, the Kb in experiment [1] is 72.4 nM.

`CCCCN(Cc1ccc(-c2ccccc2-c2nnn[nH]2)cc1)c1ncnc2c1nc(CC)n2C`: in experiment [1], the Kb was 30.2 nM.

Turning to `CCc1nc(NCc2ccc(-c3ccccc3-c3nn[nH]n3)cc2)c2ccccc2n1`, in experiment [1], the Kb was 2.95 nM.

In the case of `CCCN(Cc1ccc(-c2ccccc2-c2nn[nH]n2)cc1)c1[nH]cnc2nncc1-2`, in experiment [1], the Kb is 339 nM.

As for `CCc1nc(NCc2ccc(-c3ccccc3-c3nn[nH]n3)cc2)c2cc(OC)ccc2n1`, the Kb in experiment [1] is 2.63 nM.

For `CCCCN(Cc1ccc(-c2ccccc2-c2nnn[nH]2)cc1)c1ncnc2ccc(OC)cc12`, the Kb in experiment [1] is 47.9 nM.

On to `CCCCN(Cc1ccc(-c2ccccc2-c2nnn[nH]2)cc1)c1ncnc2c1nc(-c1ccccc1)n2C`, for which the Kb in experiment [1] was > 100 nM.

In the case of `CCCCN(Cc1ccc(-c2ccccc2-c2nnn[nH]2)cc1)c1ncnc2c1nc(C(N)=O)n2C`, the Kb in experiment [1] was > 100 nM.

As for `CCCCN(Cc1ccc(-c2ccccc2-c2nn[nH]n2)cc1)c1ncnc2c1nc(S(C)(=O)=O)n2C`, the Kb in experiment [1] was > 100 nM.

With `CCCN(Cc1ccc(-c2ccccc2-c2nnn[nH]2)cc1)c1ncnc2ncn(CC(=O)O)c12`, in experiment [1], the Kb was 74.1 nM.

Regarding `CCc1nc(NCc2ccc(-c3ccccc3-c3nnn[nH]3)cc2)c2c(OC)cccc2n1`, in experiment [1], the Kb was 8.51 nM.

In the case of `CCCN(Cc1ccc(-c2ccccc2-c2nn[nH]n2)cc1)c1ncncc1C(=O)O`, the Kb in experiment [1] was 0.117 nM.

Take `CCCCN(Cc1ccc(-c2ccccc2-c2nn[nH]n2)cc1)c1[nH]cnc2nc(C)nc1-2`: the Kb in experiment [1] is 7.76 nM.

On to `CCCN(Cc1ccc(-c2ccccc2-c2nn[nH]n2)cc1)c1ncnc2c1ncn2Cc1ccccc1`, for which the Kb in experiment [1] is 151 nM.

Consider `CCc1nc(NCc2ccc(-c3ccccc3-c3nnn[nH]3)cc2)c2ncn(C)c2n1`, for which the Kb in experiment [1] was 5.13 nM.
